The source of these data is ChEMBL document CHEMBL5131376, “Kinase Inhibitors as Underexplored Antiviral Agents” (J Med Chem, 2022).

Broadly, the Kd is a measure of binding affinity in units of concentration. By IC50 is commonly meant the point on the concentration scale where inhibition reaches its midpoint. The EC50 is the midpoint of the concentration-response curve. A word on the CC50: it is the concentration giving 50% cytotoxicity.

Data set [1] deals with BMP-2-inducible protein kinase (Homo sapiens, UniProt Q9NSY1). Description: Binding affinity to BIKE (unknown origin) assessed as dissociation constant.
BMP-2-inducible protein kinase, sequence (Q9NSY1 whole entry): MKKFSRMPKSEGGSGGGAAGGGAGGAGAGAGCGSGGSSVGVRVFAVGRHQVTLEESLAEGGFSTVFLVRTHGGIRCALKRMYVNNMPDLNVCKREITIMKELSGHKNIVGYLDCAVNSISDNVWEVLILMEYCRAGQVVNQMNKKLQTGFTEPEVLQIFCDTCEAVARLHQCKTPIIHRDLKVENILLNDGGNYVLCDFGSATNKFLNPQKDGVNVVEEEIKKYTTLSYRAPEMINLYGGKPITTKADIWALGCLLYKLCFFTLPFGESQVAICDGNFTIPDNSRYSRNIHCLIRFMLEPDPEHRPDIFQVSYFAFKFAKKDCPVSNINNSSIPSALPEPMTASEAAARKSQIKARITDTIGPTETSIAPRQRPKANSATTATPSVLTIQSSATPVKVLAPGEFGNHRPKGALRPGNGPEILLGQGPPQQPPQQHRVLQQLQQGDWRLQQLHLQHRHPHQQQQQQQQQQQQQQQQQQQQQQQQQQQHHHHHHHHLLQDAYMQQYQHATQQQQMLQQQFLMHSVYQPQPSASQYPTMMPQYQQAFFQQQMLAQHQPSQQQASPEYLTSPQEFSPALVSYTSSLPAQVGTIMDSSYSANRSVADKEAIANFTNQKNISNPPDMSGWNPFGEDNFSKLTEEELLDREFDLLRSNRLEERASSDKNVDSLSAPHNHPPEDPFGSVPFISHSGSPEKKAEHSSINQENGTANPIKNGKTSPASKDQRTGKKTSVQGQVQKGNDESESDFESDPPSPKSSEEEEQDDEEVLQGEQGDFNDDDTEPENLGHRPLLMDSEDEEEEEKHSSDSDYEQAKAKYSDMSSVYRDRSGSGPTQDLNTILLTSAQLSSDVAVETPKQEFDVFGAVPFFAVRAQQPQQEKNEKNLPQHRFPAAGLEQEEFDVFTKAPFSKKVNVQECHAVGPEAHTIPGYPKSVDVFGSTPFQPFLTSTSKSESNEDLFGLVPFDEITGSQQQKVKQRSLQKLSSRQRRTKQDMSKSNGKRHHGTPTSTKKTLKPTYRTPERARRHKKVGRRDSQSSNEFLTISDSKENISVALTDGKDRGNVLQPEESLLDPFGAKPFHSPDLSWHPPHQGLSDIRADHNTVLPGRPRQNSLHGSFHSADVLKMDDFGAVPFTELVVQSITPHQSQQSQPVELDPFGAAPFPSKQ
Data set [2] has as its target Cyclin-dependent kinase 2 (Homo sapiens, UniProt P24941). Description: Inhibition of CDK2 (unknown origin).
In data set [3] the test system is Zika virus. In words: Antiviral activity against ZIKV infected in human SNB-19 cells. The format is functional, organism-based.
The target of data set [4] is AP2-associated protein kinase 1 (Homo sapiens, UniProt Q2M2I8). Description: Binding affinity to AAK1 (unknown origin) assessed as dissociation constant.
AP2-associated protein kinase 1, sequence (Q2M2I8 whole entry): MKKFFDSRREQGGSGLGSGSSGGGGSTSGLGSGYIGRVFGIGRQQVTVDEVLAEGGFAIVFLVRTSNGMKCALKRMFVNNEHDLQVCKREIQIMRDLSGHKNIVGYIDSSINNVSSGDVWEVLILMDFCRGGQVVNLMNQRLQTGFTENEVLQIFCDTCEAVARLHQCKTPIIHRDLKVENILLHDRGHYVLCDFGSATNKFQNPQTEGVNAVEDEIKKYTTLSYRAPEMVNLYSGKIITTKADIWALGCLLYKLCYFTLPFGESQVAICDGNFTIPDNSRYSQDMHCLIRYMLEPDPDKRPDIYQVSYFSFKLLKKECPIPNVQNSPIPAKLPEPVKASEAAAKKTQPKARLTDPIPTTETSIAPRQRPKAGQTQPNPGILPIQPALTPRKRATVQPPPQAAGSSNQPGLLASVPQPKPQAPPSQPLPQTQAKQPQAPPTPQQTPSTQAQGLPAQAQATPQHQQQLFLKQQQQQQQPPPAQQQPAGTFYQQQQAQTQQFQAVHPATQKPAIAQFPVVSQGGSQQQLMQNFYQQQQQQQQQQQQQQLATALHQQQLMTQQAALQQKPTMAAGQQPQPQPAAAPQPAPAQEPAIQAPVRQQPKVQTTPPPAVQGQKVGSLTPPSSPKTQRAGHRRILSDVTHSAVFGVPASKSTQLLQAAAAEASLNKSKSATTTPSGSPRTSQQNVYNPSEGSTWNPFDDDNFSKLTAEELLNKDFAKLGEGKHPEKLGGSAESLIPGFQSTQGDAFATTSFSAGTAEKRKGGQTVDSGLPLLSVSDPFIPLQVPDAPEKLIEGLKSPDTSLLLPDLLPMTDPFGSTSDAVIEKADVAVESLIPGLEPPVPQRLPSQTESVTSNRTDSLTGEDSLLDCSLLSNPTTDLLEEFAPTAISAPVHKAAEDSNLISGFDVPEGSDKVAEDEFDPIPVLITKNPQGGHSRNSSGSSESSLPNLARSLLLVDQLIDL
For data set [5], the target named is Cyclin-G-associated kinase (Homo sapiens, UniProt O14976). In words: Binding affinity to GAK (unknown origin) assessed as dissociation constant.
Data set [6] relates to Human alphaherpesvirus 1. In words: Antiviral activity against HSV-1 infected in African green monkey Vero cells assessed as inhibition of viral replication. The format is functional, organism-based. Particulars: Human alphaherpesvirus 1, Vero.
In data set [7] the target is Tyrosine-protein kinase ABL1 (Homo sapiens, UniProt P00519).
Tyrosine-protein kinase ABL1, sequence (P00519 whole entry): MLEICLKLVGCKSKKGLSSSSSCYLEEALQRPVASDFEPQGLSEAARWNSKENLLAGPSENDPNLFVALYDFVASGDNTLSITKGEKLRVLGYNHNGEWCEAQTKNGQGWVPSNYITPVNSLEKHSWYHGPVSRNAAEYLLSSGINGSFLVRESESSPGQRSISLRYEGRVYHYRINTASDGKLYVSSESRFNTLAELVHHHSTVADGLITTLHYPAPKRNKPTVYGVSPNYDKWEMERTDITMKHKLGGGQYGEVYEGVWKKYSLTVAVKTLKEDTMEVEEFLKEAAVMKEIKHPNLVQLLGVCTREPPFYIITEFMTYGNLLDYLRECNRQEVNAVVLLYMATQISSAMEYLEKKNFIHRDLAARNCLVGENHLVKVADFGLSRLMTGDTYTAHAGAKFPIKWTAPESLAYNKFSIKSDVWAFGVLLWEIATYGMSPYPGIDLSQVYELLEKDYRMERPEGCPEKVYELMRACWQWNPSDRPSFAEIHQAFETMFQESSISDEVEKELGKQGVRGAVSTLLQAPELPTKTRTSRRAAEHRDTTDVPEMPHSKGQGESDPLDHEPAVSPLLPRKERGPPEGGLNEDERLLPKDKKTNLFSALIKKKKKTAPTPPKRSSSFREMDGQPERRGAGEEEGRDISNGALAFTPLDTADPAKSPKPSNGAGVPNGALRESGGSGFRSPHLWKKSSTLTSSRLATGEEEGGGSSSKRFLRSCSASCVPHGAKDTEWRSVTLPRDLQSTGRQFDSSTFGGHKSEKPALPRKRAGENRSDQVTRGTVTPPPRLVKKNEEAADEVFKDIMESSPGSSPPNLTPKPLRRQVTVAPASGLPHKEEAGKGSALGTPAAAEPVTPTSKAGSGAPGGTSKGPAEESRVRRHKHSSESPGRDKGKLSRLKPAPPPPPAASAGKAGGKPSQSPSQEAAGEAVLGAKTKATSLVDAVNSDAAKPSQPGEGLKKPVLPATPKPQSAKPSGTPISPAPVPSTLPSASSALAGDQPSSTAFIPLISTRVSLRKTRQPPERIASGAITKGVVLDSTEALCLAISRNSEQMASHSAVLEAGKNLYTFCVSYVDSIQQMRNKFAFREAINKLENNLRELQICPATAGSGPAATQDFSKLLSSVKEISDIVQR
Data set [8] has as its system dengue virus type 1. Description: Antiviral activity against DENV 1 infected in hamster BHK-21 cells assessed as focus formation measured after 5 days. Format: functional, organism-based. Particulars: BHK-21, 120 h.
Data set [9] has as its system dengue virus type 4. In words: Antiviral activity against DENV 4 infected in african green monkey Vero cells assessed as focus formation measured after 6 days. The format is functional, organism-based. As to conditions: 144 h.
The test system of data set [10] is dengue virus type 2. In words: Antiviral activity against DENV 2 infected in african green monkey Vero cells assessed as focus formation measured after 6 days. Format: functional, organism-based. Particulars: 144 h.
Data set [11] concerns dengue virus type 3. In words: Antiviral activity against DENV 3 infected in african green monkey Vero cells assessed as focus formation measured after 6 days. Format: functional, organism-based. As to conditions: 144 h.
In data set [12] the target is 1-phosphatidylinositol 3-phosphate 5-kinase (Homo sapiens, UniProt Q9Y2I7). Description: Inhibition of PIKFYVE (unknown origin).
Data set [13] can be described thus: Cytotoxicity against human […] cells. The format is toxicity, cell-based. Particulars: U2OS cells.
For data set [14], the system named is SARS-CoV-2. Description: Antiviral activity against SARS-CoV-2 infected in african green monkey Vero cells incubated for 72 hrs by celltitre-glo luminescent assay. The format is functional, organism-based. As to conditions: Severe acute respiratory syndrome coronavirus 2, Vero.
A short description of data set [15]: Cytotoxicity against african green monkey Vero cells. The format is toxicity, cell-based. As to conditions: chlorocebus sabaeus.
For data set [16], the system named is Human immunodeficiency virus 1. In words: Antiviral activity against HIV-1 in U87/CD4/CCR5 cells expressing HIV-1-envelope-protein assessed as decreased cell-cell fusion at 300 nM. The format is functional. The arrangement: scale not given: the % may be the effect or the level left.
Data set [17] can be described thus: Binding affinity to AMPK (unknown origin). The arrangement: species or system Homo sapiens.
In data set [18] the test system is SARS-CoV. In words: microbe, parasite or virus in culture. As to conditions: Severe acute respiratory syndrome-related coronavirus, Vero C1008, 50 h.
Data set [19] relates to Influenza A virus. Description: Antiviral activity against Influenza A virus (A/WSN/33 (H1N1)). The format is functional, organism-based.
Data set [20] concerns Influenza A virus. Description: Antiviral activity against Influenza A virus A/Equine/2/MIAMI/1/63 (H3N8)). The format is functional, organism-based.
The test system of data set [21] is Influenza B virus. Description: Antiviral activity against Influenza B virus B/Lee/40. The format is functional, organism-based.
Data set [22] deals with Influenza B virus. Description: Antiviral activity against Influenza B virus B/MD/59. Format: functional, organism-based.
For data set [23], the system named is Parainfluenza virus 5. In words: Antiviral activity against PIV5. Format: functional, organism-based.
Data set [24] deals with Influenza A virus. In words: Antiviral activity against Influenza A virus (A/Udorn/72 (H3N2)). Format: functional, organism-based.
Data set [25] concerns Influenza A virus. Description: Antiviral activity against Influenza A virus (A/PR/8/34 (H1N1)). Format: functional, organism-based.
For data set [26], the system named is Middle East respiratory syndrome-related coronavirus. In words: microbe, parasite or virus in culture. Particulars: Vero.
For data set [27] the test system is unchanged. In words: Antiviral activity against MERS-CoV infected in human HUh-7 cells at 0.1 to 10 uM. Format: functional. As to conditions: dose 0.1-10 µM.
Data set [28] can be described thus: Inhibition of PDGFR (unknown origin). Details: species or system Homo sapiens.
Data set [29] addresses High affinity nerve growth factor receptor (Homo sapiens, UniProt P04629). In words: Inhibition of TrKA (unknown origin).
Data set [30] is described as follows: Inhibition of MEK (unknown origin). Details: species or system Homo sapiens.
Data set [31] deals with Dual specificity mitogen-activated protein kinase kinase 1 (Homo sapiens, UniProt Q02750).
Dual specificity mitogen-activated protein kinase kinase 1, sequence (Q02750 whole entry): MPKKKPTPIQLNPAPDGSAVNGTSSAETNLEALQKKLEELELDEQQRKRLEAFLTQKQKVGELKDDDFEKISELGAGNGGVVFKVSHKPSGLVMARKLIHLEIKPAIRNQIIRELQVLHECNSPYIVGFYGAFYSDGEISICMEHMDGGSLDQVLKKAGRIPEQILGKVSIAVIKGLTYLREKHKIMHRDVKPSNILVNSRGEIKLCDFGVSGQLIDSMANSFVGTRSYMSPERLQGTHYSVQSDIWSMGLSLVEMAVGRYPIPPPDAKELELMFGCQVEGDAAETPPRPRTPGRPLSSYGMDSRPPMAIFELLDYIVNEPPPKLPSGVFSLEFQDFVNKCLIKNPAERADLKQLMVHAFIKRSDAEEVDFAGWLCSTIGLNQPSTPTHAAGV

High affinity nerve growth factor receptor, sequence (P04629 whole entry): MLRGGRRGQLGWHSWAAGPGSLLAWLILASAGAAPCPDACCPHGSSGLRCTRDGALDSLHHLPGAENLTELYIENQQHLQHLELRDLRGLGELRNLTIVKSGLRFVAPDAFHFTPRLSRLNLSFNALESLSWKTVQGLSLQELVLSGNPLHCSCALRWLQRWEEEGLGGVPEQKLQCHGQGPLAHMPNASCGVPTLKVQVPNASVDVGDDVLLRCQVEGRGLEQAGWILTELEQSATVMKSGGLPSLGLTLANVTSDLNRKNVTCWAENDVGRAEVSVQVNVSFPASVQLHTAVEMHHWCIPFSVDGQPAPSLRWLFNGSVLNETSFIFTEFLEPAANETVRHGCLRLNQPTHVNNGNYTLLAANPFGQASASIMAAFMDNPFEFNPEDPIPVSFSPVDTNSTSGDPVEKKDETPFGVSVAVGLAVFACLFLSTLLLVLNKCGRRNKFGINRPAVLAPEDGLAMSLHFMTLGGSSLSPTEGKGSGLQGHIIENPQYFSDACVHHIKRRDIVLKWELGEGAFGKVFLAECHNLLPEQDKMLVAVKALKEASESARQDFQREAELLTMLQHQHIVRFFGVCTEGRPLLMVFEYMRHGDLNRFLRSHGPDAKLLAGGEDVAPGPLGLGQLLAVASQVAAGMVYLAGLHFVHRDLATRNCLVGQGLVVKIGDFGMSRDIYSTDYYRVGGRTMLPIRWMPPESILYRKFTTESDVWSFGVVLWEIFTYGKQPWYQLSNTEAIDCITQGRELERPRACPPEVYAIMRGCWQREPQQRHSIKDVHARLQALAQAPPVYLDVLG

With `COc1cc(O)c2c(c1)/C=C/C[C@H](O)[C@H](O)C(=O)/C=C\C[C@H](C)OC2=O`, the Kd in [1] is 0.0038 µM.

Take `CC(=O)Nc1ccc(C(C)C(=O)Nc2ncc(C(C)C)s2)cc1` (configuration not stated): the IC50 in data set [2] was determined as 0.031 µM; in data set [3], 1.72 µM.

Consider `COc1ccc(-c2cnc3[nH]cc(C#Cc4cccnc4)c3c2)cc1OC`, for which, in [4], the Kd was determined as 0.004 µM.

Turning to `CC(C)C(=O)Nc1n[nH]c2cc(-c3cccc(NS(=O)(=O)C4CC4)c3)ccc12`, the Kd in data set [4] was determined as 18 µM.

Regarding `COc1cc(N(C)c2ccnc3ccc(C(F)(F)F)cc23)cc(OC)c1OC`, in [5], the Kd was 2.5 µM.

Take `Fc1ccc(N2CCCCC2)c(NC(=S)c2ccncc2)c1`: the EC50 in data set [6] worked out at 0.69 µM.

Consider `CC(=O)c1cccc(-c2cc(Nc3ccc(OC(F)(F)F)cc3)ncn2)c1`, for which the IC50 in [7] is 0.138 µM; in data set [8], 5 µM; in data set [9], 5 µM; in data set [10], 5 µM; in data set [11], 5 µM.

Regarding `COc1ccccc1-c1cnc2ccc(N3CC[C@H](N(C)C(=O)C(C)C)C3)nn12`, in [4], the Kd was found to be 0.001 µM.

As for `Ic1cccc(/C=N/Nc2nc(N3CCOCC3)nc(N(c3ccccc3)c3ccccc3)n2)c1`, in data set [12], the IC50 is 0.009 µM.

As for `COc1ccccc1-c1cnc2ccc(N3CC[C@H](N(C)C(=O)C(C)(C)C)C3)nn12`, in [4], the Kd amounted to 0.001 µM.

Regarding `C1=Nc2ccccc2/C1=C/NNc1nc(Nc2ccccc2)nc(N2CCOCC2)n1`, the IC50 in data set [13] stood at 0.014 µM.

For the molecule `CCN1CCN(Cc2ccc(Nc3ncc(F)c(-c4cc(F)c5nc(C)n(C(C)C)c5c4)n3)nc2)CC1` [ABEMACICLIB], the IC50 in data set [14] was found to be 6600 µM. The same molecule showed a CC50 in [15] above 50 µM.

For the molecule `Cc1nc(Nc2ncc(C(=O)Nc3c(C)cccc3Cl)s2)cc(N2CCN(CCO)CC2)n1.O` [DASATINIB], the Activity in data set [16] worked out at 93%.

As for `c1cc(-c2cnn3cc(-c4ccc(OCCN5CCCCC5)cc4)cnc23)ccn1` [DORSOMORPHIN], in [17], the IC50 was 0.109 µM.

In the case of `Cc1ccc(NC(=O)c2ccc(CN3CCN(C)CC3)cc2)cc1Nc1nccc(-c2cccnc2)n1` [IMATINIB], the midpoint of the response in data set [18], the EC50, lay at 2.1 µM.

As to `Cc1cn(-c2cc(NC(=O)c3ccc(C)c(Nc4nccc(-c5cccnc5)n4)c3)cc(C(F)(F)F)c2)cn1` [NILOTINIB], a half-maximal effect in [18] (EC50) was put at 2.1 µM.

As to `COc1ccc(Cc2nccc3cc(OC)c(OC)cc23)cc1OC` [PAPAVERINE], the IC50 in data set [19], in [20], in data set [21], in data set [22], in data set [23] and in data set [24] was 2 µM in each case. In [25], this molecule gave an IC50 of 2 µM.

In data set [26], `CN1CCN(CCOc2cc(OC3CCOCC3)c3c(Nc4c(Cl)ccc5c4OCO5)ncnc3c2)CC1` [SARACATINIB] returned an EC50 of 2.9 µM.

`Cn1cnc2c(F)c(Nc3ccc(Br)cc3Cl)c(C(=O)NOCCO)cc21` [SELUMETINIB] yielded an Activity in data set [27] above 95%.

Turning to `CNC(=O)c1cc(Oc2ccc(NC(=O)Nc3ccc(Cl)c(C(F)(F)F)c3)cc2)ccn1` [SORAFENIB], the IC50 in data set [28] came out at 0.02 µM.

In the case of `CC(=O)Nc1cccc(-n2c(=O)n(C3CC3)c(=O)c3c(Nc4ccc(I)cc4F)n(C)c(=O)c(C)c32)c1` [TRAMETINIB], in data set [27], the Activity is reported as above 95%.

As for `CC(C)(C)c1cc(C=C(C#N)C#N)cc(C(C)(C)C)c1O` [TYRPHOSTIN A9], the IC50 in data set [28] amounted to 0.5 µM.

As to `CC(C)(C)c1cc(/C=C(\C#N)C(N)=S)cc(C(C)(C)C)c1O` [TYRPHOSTIN AG 879], the IC50 in data set [29] came out at 10 µM.

On to `O=C(O)c1ccc(F)c(F)c1Nc1ccc(I)cc1Cl` [ZAPNOMETINIB], for which the IC50 in data set [30] and in data set [31] was 0.00573 µM in each case.
